Laboratory results reported in patent US4956355A, “Agents for the arrest and therapy of retroviral infections” (Colthurst Limited, priority 1987, dated 1990).

Columns and labels:
HIV = experiment: Use of dehydroepiandrosterone in AIDS therapy, twelve patients; format: in vivo, human patients
Procedure: Twelve patients all of whom were sero-positive for HIV and had been diagnosed as suffering from AIDS were treated with DHEA for up to six months. The DHEA was administered in the form of hard gelatin capsules containing 100 mg of DHEA and at a rate of 100 mg to 600 mg per day. The vast majority being on 500 mg per day in divided doses. The patients were all homosexual or bisexual males with an average age of 34.5 years and an average weight of 69.6 kg.
Past and present HIV clinical manifestations included: unexplained diarrhoea, Kaposis Sarcoma, Herpes Zoster, Oral Candidiasis, Lymphadenopathy, Oral Hairy Leucoplakia, involuntary weight loss, dermal mycoses and Stapholococcal skin infections.
All of the patients were in an advanced stage of AIDS at the commencement of the trial and normally further deterioration of their condition, or even death, would have been expected over the six month period of the trial. […] Patient 7 gained 8 kg over five months.

[1] = in vivo; cited from earlier work
HIV in human macrophages = experiment: Inhibition of cytoplasmic HIV p24 antigen in HIV-infected macrophages; format: cell-based; settings: FIG. 4
Procedure: (§1) 1. […] All three viral strains were grown in the Tissue Culture Laboratory of the AIDS Activity Division of San Francisco General Hospital where titers of […] infectious units per ml were routinely achieved.
(§2) 2. Source of cells: The VB cell line used in Example 1 is a T lymphoma cell line that is highly susceptible to infection with HIV, and expresses high levels of cell surface CD4 molecules. This cell line forms syncytia within two days after infection with all strains of HIV tested to date. […] This is used to quantitate infection in the absence of syncytial formation, infection being quantitated by immunofluorescence assays. The HXB/H9 cell line (Example 6) is an H9 cell population that chronically produces the HTLV-IIIB strain of HIV and is utilised in experiments testing antiviral effects on chronically infected cell lines. Human macrophages were prepared from peripheral blood mononuclear cells either obtained from the blood bank as a buffy coat, or as a leukophoresis preparation. Crowe et al. supra have devised an assay system that allows quantitation of HIV infection, and inhibition of infection using immunocytofluorographic analysis. In order to quantitate HIV infection in macrophages, they grow macrophages in Teflon (Trade Mark) culture vessels which maintain macrophages in suspension in vitro culture for up to six months. Cell surface and cytoplasmic immunofluorescence staining is then performed to quantitate antigens in macrophages by flow cytometry.
3. Flow cytometry: An Ortho Cytofluorgraf II-S (Trade Mark) that has a biohazard containment flow cell was used for analysis of HIV infected samples. HIV p24 antigens were detected utilizing a mouse monoclonal anti-p24 (du Pont), and mouse antibodies were identified utilizing an FITC conjugated goat anti-mouse IgG. […]
The cells from the experiment described in Example 3 were analysed, and the cytoplasm was analysed for the presence of HIV p24 to directly test whether HIV p24 antigen production was inhibited within those infected cells. […]

HIV in HXB/H9 cell line = experiment: Antiviral testing of chronically HIV infected cell line HXB; format: cell-based; settings: other than killing with compound B at 10^-4 molar
Procedure: as §1
as §2, with “Human macrophages were prepared from peripheral blood mononuclear cells either obtained from the blood bank as a buffy coat, or as a leukophoresis preparation.” left out, “cytometry. […]” for “cytometry.”

[2] = test system: HIV in chronically infected human macrophages; experiment: Antiviral testing of chronically HIV infected macrophages; format: cell-based
From the text: as §2
3. Flow cytometry: An Ortho Cytofluorgraf II-S (Trade Mark) that has a biohazard containment flow cell was used for analysis of HIV infected samples. HIV p24 antigens were detected utilizing a mouse monoclonal anti-p24 (du Pont), and mouse antibodies were identified utilizing an FITC conjugated goat anti-mouse IgG.
6. Analysis of chronically infected cells: To determine whether compounds A and B are effective at inhibiting HIV expression in macrophages and chronically infected T cells, the following experiments were performed. The chronically infected T cell line, HXB/H9 was exposed to various concentrations of drug for four days in vitro. At four days, the HXB cells were assayed for the presence of p24 intracytoplasmically, and supernatants were assayed for the presence of infectious virus as described above.
Because macrophages can be infected and produce HIV for very long periods of time without substantial loss of viability, chronically infected cells were tested, specifically a population that was between 30 and 50% HIV antigen positive, for inhibition of cytoplasmic HIV p24 antigen production. FIG. 5 indicates the results of three separate experiments carried out.

[3] = test system: HIV in VB T lymphoma cell line; experiment: Inhibition of HIV mediated cytopathic effects (multinucleated giant/syncytial cell formation) in acutely infected VB tumor cell line; format: cell-based
Procedure: as §1, §2
5. Inhibition of acute infection: Several assays were utilized to test for inhibition of acute infection; these included:
(a) Inhibition of multinucleated giant cell formation in acutely infected VB cells infected at a multiplicity of infection of 1, and scored two days after infection in the presence or absence of varying concentrations of drug, for the formation of multinucleated giant cells. (free virus is washed out after a one hour incubation pretreatment at room temperature). […] Supernatants were also isolated and the level of HIV p24 antigen determined. Infectious virus was measured in treated cultures by performing a syncytial assay as described above.
Compounds A and B were tested for inhibition of T lymphoma cell cytopathic effect at various drug concentrations after acute infection with HIV for 48 hours. […] It is possible that the diminished effects noted in later experiments could have been secondary to drug stability problems.

C[C@]12CC[C@H](O)CC1=CC[C@@H]1[C@@H]2CC[C@]2(C)C(=O)CC[C@@H]12 [A, dehydroepiandrosterone]
patients gaining weight (HIV; of twelve patients, up to six months): four | deterioration in condition (HIV; oral, 100 mg to 600 mg per day, up to six months, twelve advanced AIDS patients): no serious deterioration in condition | weight gain of Patient 7 (HIV; over five months): 8 kg | metabolic disorders and liver cirrhosis [1]: suppress some of the metabolic disorders and liver cirrhosis | pain in ischemic heart disease, especially angina pectoris [1]: reduces pain | HIV p24 cytoplasmic antigen production (HIV in human macrophages; 10^-4 molar, three donors): substantially inhibited | inhibiting HIV p24 antigen production within infected macrophages (HIV in human macrophages; dilutions even at 10^-6 molar): active | inhibition of HIV production of cytopathic effects in chronically infected lymphoma cell line (HIV in HXB/H9 cell line): no specific inhibition | inhibition compared with inhibition of acute infection of macrophages ([2]; 10^-4 and 10^-5 molar, FIG. 5 vs FIG. 4): somewhat less than the inhibition of acute infection of macrophages | inhibition of cytoplasmic HIV p24 antigen production in chronically infected macrophages ([2]; both 10^-4 and 10^-5 molar, three experiments, FIG. 5): some inhibition | antiviral effects in comparison with AZT, T lymphoma cells ([3]; acute infection): inferior | antiviral effect in acute infection studies of T lymphoma cells ([3]; acute infection, conclusions): mild antiviral effect | inhibition of cytopathic effect in two subsequent experiments ([3]; compounds diluted in DMSO, possibly secondary to drug stability problems): less striking effect
